Target: T1, Rac2 (Mus musculus, UniProt Q05144)
T1 construct: reduced the expression of immune cell-specific Rac2 in the FBR capsules by about 80%; from tissue; host or cells: FBR capsule tissue around mechanically stimulating implants in C57/BL6 wild-type mice (Jackson labs Stock No: 000664)
Experiment: Rac inhibition in the mechanically stimulating implant (MSI) mouse model of foreign body response
Type: in vivo
Details: C57/BL6 wildtype mice
Text: Implantation Experiments. Standard silicone implants and MS's were implanted in C57/BL6 mice for either 2 weeks or 1 month. A 2 cm incision was made on the dorsum of the mouse and a subcutaneous pocket was created. Control implants were placed in the subcutaneous pocket and the incision was closed using 6-0 nylon suture or staples. For vibration-enabled implants, the implants were placed into a subcutaneous pocket, similar to the procedure described above and wires were guided through the skin using a modified seldinger technique. 3V batteries with an amplitude of 1.38 G and a frequency of 203 Hz were used to mimic human conditions. MS's were vibrated for 1 hour daily from day 4 (D4) post implantation to day 11 (D11). This time period was chosen based on previous studies, showing that increased mechanical stress during this period effectively induces fibrosis.
Histology and Trichrome staining. At each timepoint, the mice were euthanized, and the implants were resected en bloc with the surrounding scar tissue. The implants were removed and the scar tissue along with the skin was fixed in 4% paraformaldehyde overnight and embedded in paraffin. Scar tissue and implants from humans were collected from patients and processed within an hour. For analysis of the capsule, paraffin sections were stained with trichrome (SigmaAldrich) as described previously. Imaging was performed on a Leica DM5000 B upright microscope. Image analysis software (Image J) was used to quantify collagen staining.
Immunostaining. Immunohistological staining was performed on paraffin sections as described previously. Briefly, heat-based antigen retrieval was followed by blocking with 5% goat serum in PBS. The following primary antibodies were used at a 1:200 dilution (as recommended by the manufacturer) and incubated overnight at 4° C.: anti-a-SMA (Abcam ab5694) or anti-Rac2 (Fischer Scientific, DF6273). Incubation of primary antibody-stained specimens with Alexa Fluor 488 secondary antibody (Thermo Fisher Scientific) was performed at a 1:400 dilution for 1 hour at room temperature. Sections were subsequently mounted using Fluoroshield (F6057, Sigma, Saint Louis, MO) with 4′, 6-diamidino-2-phenylindole (DAPI) to stain cell nuclei. Imaging was performed on a Leica DM5000 B upright microscope. Image analysis was performed using Matlab.
Rac Inhibition Experiments. EHT 1864 2HCl, a potent Rac family GTPase inhibitor, was acquired from Selleckchem (Houston, TX). MS's were implanted in C57/BL6 wildtype mice for 28 days utilizing the modified Seldinger technique described above. Mice were injected with EHT 1864 2HCl (10 mg/kg/day) (n=4) or saline (n=4) from Days 0-26. FBR capsule tissue was explanted on day 28 and processed for histologic analysis.
Statistical Analyses. Results are presented as mean±SEM. Standard data analysis was performed using student's ttests. ANOVA with posthoc tukey's test was used for multiple comparisons. Results were considered significant for *p<0.05.

[1] = 10 mg/kg/day Days 0-26 vs saline, day 28
[2] = local injection 10 mg/kg/day Days 0-26 vs saline, capsule explanted day 28

## Cl.Cl.O=c1cc(CN2CCOCC2)occ1OCCCCCSc1ccnc2cc(C(F)(F)F)ccc12 [EHT 1864 2HCl]
[1]
  capsule thickness (H&E staining): decreased
  collagen deposition (trichrome staining): decreased
  overall FBR: significantly reduced
[2]
  reduction in the activation of myofibroblasts in MSI capsules (aSMA immunostaining): about 90%
  reduction of expression of immune cell-specific Rac2 in the FBR capsules (immunostaining, percent area positive): about 80%

Source: patent US20230381378A1, “METHODS AND COMPOSITIONS FOR THE TREATMENT OF IMPLANT ASSOCIATED COMPLICATIONS” (The Board of Trustees of the Leland Stanford Junior …, priority 2020, published 2023)
